The record followed here is PMC12631900, “Preservation of ALYREF Phase Separation Mitigates Doxorubicin‐Induced Cardiomyocyte DNA Damage and Cardiotoxicity” (Advanced Science, 2025).

Assay [1] concerns the target T1, ALYREF (Mus musculus, UniProt O08583, DEL113-113).
T1 construct: full length; endogenous in neonatal mouse cardiomyocytes (wild type); Flag-tagged plasmids transfected into the cardiomyocytes for the deletion mutants
Put plainly: cellular thermal shift assay (also DARTS in lysate). Format: cell-based. The settings on record: Flag-tagged mutant transfected into mouse cardiomyocytes.

In assay [2] the target is T2, ALYREF (Mus musculus, UniProt O08583).
T2 construct: full length; endogenous in neonatal mouse cardiomyocytes (wild type); Flag-tagged plasmids transfected into the cardiomyocytes for the deletion mutants
The assay is described as above. The class given is cell-based. The following applies: mouse cardiomyocytes; 40 to 67 °C, 3 min; vs DMSO.

Assay [3] addresses T3, ALYREF (Mus musculus, UniProt O08583, DEL171-171).
T3 construct: full length; endogenous in neonatal mouse cardiomyocytes (wild type); Flag-tagged plasmids transfected into the cardiomyocytes for the deletion mutants
The description is as above. The class given is cell-based. The following applies: Flag-tagged mutant transfected into mouse cardiomyocytes.

Assay [4] concerns the target ALYREF (purified recombinant, pSMARt‐I‐ALYREF) (Mus musculus, UniProt O08583). Put plainly: in vitro droplet (phase separation) assay, microscopy. The class given is biochemical. The settings on record: 250 mmol/L Tris pH 8.0, 10% PEG-8000, room temperature.

As for `COc1cccc2c1C(=O)c1c(O)c3c(c(O)c1C2=O)C[C@@](O)(C(=O)CO)C[C@@H]3O[C@H]1C[C@H](N)[C@H](O)[C@H](C)O1` [doxorubicin], the “binding retained (DARTS, CESTA)” value at ALYREF [1] is listed as “DOX remained capable of binding to the ΔD113 mutant”. The “thermal stability (CESTA)” value at ALYREF [2] was “DOX treatment significantly increased the thermal stability of ALYREF compared with the DMSO control”. Also, the “binding abolished (DARTS, CESTA)” value on ALYREF [3] is “Deletion of D171 abolished the interaction between ALYREF and DOX”. In addition, the droplet disruption entry in assay [4] was “also disrupted by DOX, which caused droplet disintegration and structural irregularity”.
